Legend:
BMP-2 = assay: Endogenous BMP-2 mRNA expression in hPOB-tert cells by RT-PCR; type: cell-based, human; conditions: 0.5 μg/ml, positive control
Method: The plants found positive for BMP-2 induction in example 1 were further tested in a human periosteal/preosteoblast cell line, hPOB-tert for their ability to induce the endogenous expression of BMP-2. This test in osteoblast cells confirmed the results shown in example 1.
[…] Total RNA was extracted with TRIzol Reagent (Gibco). 10 μg RNA were reverse transcribed using the 1st Strand cDNA Synthesis Kit (Boehringer). BMP-2 cDNA sequences were amplified for 35 cycles at an annealing temperature of 55° C. using specific oligonucleotide primers (5′: […]; 3′: […]). PCR products were separated by agarose gel electrophoresis and detected by ethidium bromide staining. Quantification was performed using NIH Image Software and normalizing results with Actin as house-keeping gene.

BMP-2 promoter = assay: BMP-2 luciferase assay (BMP-2 gene reporter assay, bone formation); type: cell-based; conditions: 10^−6M; result in words
Method: BMP-2 luciferase assay—The activity of the extracts was determined using 2T3 cells containing the BMP-2 promoter operatively linked to the luciferase gene. An increase in luciferase activity in cell lysates reflects an increase in BMP-2 promoter activity. The extracts were assayed at an initial dilution of 100 μg/ml with ½ dilutions down to 0.2 μg/ml. BMP-2 promoter activity was measured by measuring the luciferase activity in cell extracts.

CC[C@H](C)C(=O)O[C@H]1C[C@@H](C)C=C2C=C[C@H](C)[C@H](CC[C@@H]3C[C@@H](O)CC(=O)O3)[C@H]21 [lovastatin]
induction of BMP-2 (BMP-2): 2.5 fold

O=c1c(-c2ccc(O)cc2)coc2cc(O)ccc12 [daidzein]
stimulation of BMP-2 (promoter activity) (BMP-2 promoter): stimulated BMP-2

O=c1c(-c2ccc(O)cc2)coc2cc(O)cc(O)c12 [genistein]
stimulation of BMP-2 (promoter activity) (BMP-2 promoter): stimulated BMP-2
